Measured values from PubChem BioAssay AID2060496 (Molecular Pharmacology Branch, DTP, NCI, 2025).

Tested on: 276233-004-R-J1-PDC complex spheroid viability
Assay: Anticancer human tumor 276233-004-R-J1-PDC patient-derived colon adenocarcinoma cell line growth inhibition [GQUAD]
Conditions: for IC50: curve of first compound; for viability, T/C: stronger effect = lower value
How it was run: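 Multi-cell-type spheroids of tumor cells with HUVEC and mesenchymal stem cells, treated with drug combinations. Concentrations descend in half-log steps from near clinical Cmax, or from 10 microM where Cmax is unknown; viability read-out.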

[1] = second compound 0.0316 µM, first compound 0.0316 µM
[2] = second compound 0.0316 µM, first compound 0.316 µM
[3] = second compound 0.1 µM, first compound 0.0316 µM
[4] = second compound 0.1 µM, first compound 0.316 µM
[5] = second compound 0.316 µM, first compound 0.0316 µM
[6] = second compound 0.316 µM, first compound 0.316 µM
[7] = second compound 1 µM, first compound 0.0316 µM
[8] = second compound 1 µM, first compound 0.316 µM
[9] = second compound 3.16 µM, first compound 0.0316 µM
[10] = second compound 3.16 µM, first compound 0.316 µM
[11] = second compound 10 µM, first compound 0.0316 µM
[12] = second compound 10 µM, first compound 0.316 µM
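Further: spheroids exposed to drugs for seven days.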
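Wherever viability, T/C is given: 100% = DMSO vehicle control viability.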

Which IC50 (second compound 0.0316 µM) does the source give for CCc1c2c(nc3ccc(O)cc13)-c1cc3c(c(=O)n1C2)COC(=O)[C@]3(O)CC + CN(C)c1ccc(Nc2c3ccc(NC(=O)CCN4CCCC4)cc3nc3cc(NC(=O)CCN4CCCC4)ccc23)cc1 here?
The IC50 was > 0.316 µM.

What about the IC50 (second compound 0.1 µM) of the same molecule?
The IC50 was > 0.316 µM.

And the IC50 (second compound 0.316 µM)?
The IC50 was > 0.316 µM.

What about the IC50 (second compound 1 µM) of the same molecule?
Its IC50 is > 0.316 µM.

And the IC50 (second compound 3.16 µM)?
The IC50 was < 0.000999 µM.

And the IC50 (second compound 10 µM)?
The IC50 was < 0.000999 µM.

And the viability, T/C (second compound 0.0316 µM, first compound 0.000999 µM)?
Its viability, T/C is 102%.

And the viability, T/C (second compound 0.0316 µM, first compound 0.00316 µM)?
The viability, T/C was 104%.

And the viability, T/C (second compound 0.0316 µM, first compound 0.00999 µM)?
The viability, T/C was 104%.

And the viability, T/C [1]?
Its viability, T/C is 105%.

What about the viability, T/C (second compound 0.0316 µM, first compound 0.0999 µM) of the same molecule?
Its viability, T/C is 108%.

And the viability, T/C [2]?
Its viability, T/C is 117%.

What about the viability, T/C (second compound 0.1 µM, first compound 0.000999 µM) of the same molecule?
The viability, T/C was 94.3%.

What about the viability, T/C (second compound 0.1 µM, first compound 0.00316 µM) of the same molecule?
Its viability, T/C is 84.9%.

And the viability, T/C (second compound 0.1 µM, first compound 0.00999 µM)?
Its viability, T/C is 101%.

And the viability, T/C [3]?
Its viability, T/C is 107%.

And the viability, T/C (second compound 0.1 µM, first compound 0.0999 µM)?
The viability, T/C was 99.7%.

And the viability, T/C [4]?
The viability, T/C was 117%.

And the viability, T/C (second compound 0.316 µM, first compound 0.000999 µM)?
Its viability, T/C is 60.1%.

And the viability, T/C (second compound 0.316 µM, first compound 0.00316 µM)?
Its viability, T/C is 71.1%.

What about the viability, T/C (second compound 0.316 µM, first compound 0.00999 µM) of the same molecule?
The viability, T/C was 75.7%.

What about the viability, T/C [5] of the same molecule?
Its viability, T/C is 76.4%.

What about the viability, T/C (second compound 0.316 µM, first compound 0.0999 µM) of the same molecule?
Its viability, T/C is 79.5%.

What about the viability, T/C [6] of the same molecule?
Its viability, T/C is 91.8%.

And the viability, T/C (second compound 1 µM, first compound 0.000999 µM)?
Its viability, T/C is 60.3%.

And the viability, T/C (second compound 1 µM, first compound 0.00316 µM)?
The viability, T/C was 50.9%.

And the viability, T/C (second compound 1 µM, first compound 0.00999 µM)?
The viability, T/C was 67.2%.

What about the viability, T/C [7] of the same molecule?
The viability, T/C was 71.6%.

And the viability, T/C (second compound 1 µM, first compound 0.0999 µM)?
The viability, T/C was 70%.

And the viability, T/C [8]?
The viability, T/C was 89.7%.

And the viability, T/C (second compound 3.16 µM, first compound 0.000999 µM)?
Its viability, T/C is 50.8%.

And the viability, T/C (second compound 3.16 µM, first compound 0.00316 µM)?
The viability, T/C was 46.4%.

What about the viability, T/C (second compound 3.16 µM, first compound 0.00999 µM) of the same molecule?
Its viability, T/C is 72.6%.

What about the viability, T/C [9] of the same molecule?
Its viability, T/C is 70.8%.

What about the viability, T/C (second compound 3.16 µM, first compound 0.0999 µM) of the same molecule?
Its viability, T/C is 75.3%.

What about the viability, T/C [10] of the same molecule?
Its viability, T/C is 70.4%.

What about the viability, T/C (second compound 10 µM, first compound 0.000999 µM) of the same molecule?
The viability, T/C was 44%.

And the viability, T/C (second compound 10 µM, first compound 0.00316 µM)?
The viability, T/C was 55.1%.

What about the viability, T/C (second compound 10 µM, first compound 0.00999 µM) of the same molecule?
Its viability, T/C is 59.1%.

What about the viability, T/C [11] of the same molecule?
The viability, T/C was 65.9%.

What about the viability, T/C (second compound 10 µM, first compound 0.0999 µM) of the same molecule?
Its viability, T/C is 78.5%.

What about the viability, T/C [12] of the same molecule?
The viability, T/C was 76.4%.

With C#Cc1c(F)ccc2cc(O)cc(-c3ncc4c(N5CC6CCC(C5)N6)nc(OCC56CCCN5CC(F)C6)nc4c3F)c12 (centres undefined) + Cc1cnc(CNC(=O)c2c(=O)c3ccc(N4CCCN(C)CC4)nc3n3c2sc2ccccc23)cn1 as the molecule, how does the IC50 (second compound 0.0316 µM) read?
Its IC50 is > 10 µM.

And the IC50 (second compound 0.1 µM)?
The IC50 was > 10 µM.

And the IC50 (second compound 0.316 µM)?
The IC50 was > 10 µM.

And the IC50 (second compound 1 µM)?
The IC50 was 7.14 µM.

And the IC50 (second compound 3.16 µM)?
The IC50 was 1.55 µM.

And the IC50 (second compound 10 µM)?
The IC50 was 1.43 µM.

What about the viability, T/C [1] of the same molecule?
The viability, T/C was 115%.

And the viability, T/C (second compound 0.0316 µM, first compound 0.1 µM)?
The viability, T/C was 86.6%.

And the viability, T/C [2]?
The viability, T/C was 101%.

What about the viability, T/C (second compound 0.0316 µM, first compound 1 µM) of the same molecule?
The viability, T/C was 77.5%.

What about the viability, T/C (second compound 0.0316 µM, first compound 3.16 µM) of the same molecule?
Its viability, T/C is 83%.

And the viability, T/C (second compound 0.0316 µM, first compound 10 µM)?
The viability, T/C was 57.8%.

What about the viability, T/C [3] of the same molecule?
Its viability, T/C is 95.2%.

And the viability, T/C (second compound 0.1 µM, first compound 0.1 µM)?
Its viability, T/C is 77.7%.

And the viability, T/C [4]?
The viability, T/C was 75.3%.

And the viability, T/C (second compound 0.1 µM, first compound 1 µM)?
Its viability, T/C is 75%.

What about the viability, T/C (second compound 0.1 µM, first compound 3.16 µM) of the same molecule?
The viability, T/C was 70.7%.

What about the viability, T/C (second compound 0.1 µM, first compound 10 µM) of the same molecule?
Its viability, T/C is 60.5%.

And the viability, T/C [5]?
Its viability, T/C is 84.1%.

And the viability, T/C (second compound 0.316 µM, first compound 0.1 µM)?
Its viability, T/C is 73%.

And the viability, T/C [6]?
The viability, T/C was 85.7%.

And the viability, T/C (second compound 0.316 µM, first compound 1 µM)?
The viability, T/C was 80.8%.

And the viability, T/C (second compound 0.316 µM, first compound 3.16 µM)?
The viability, T/C was 69.5%.

What about the viability, T/C (second compound 0.316 µM, first compound 10 µM) of the same molecule?
The viability, T/C was 59.6%.

What about the viability, T/C [7] of the same molecule?
Its viability, T/C is 84.2%.

What about the viability, T/C (second compound 1 µM, first compound 0.1 µM) of the same molecule?
The viability, T/C was 71.4%.

And the viability, T/C [8]?
Its viability, T/C is 75.5%.

What about the viability, T/C (second compound 1 µM, first compound 1 µM) of the same molecule?
The viability, T/C was 73%.

And the viability, T/C (second compound 1 µM, first compound 3.16 µM)?
Its viability, T/C is 62.8%.

And the viability, T/C (second compound 1 µM, first compound 10 µM)?
Its viability, T/C is 44.4%.

What about the viability, T/C [9] of the same molecule?
The viability, T/C was 65.2%.

What about the viability, T/C (second compound 3.16 µM, first compound 0.1 µM) of the same molecule?
The viability, T/C was 76.2%.

And the viability, T/C [10]?
The viability, T/C was 66.9%.

And the viability, T/C (second compound 3.16 µM, first compound 1 µM)?
Its viability, T/C is 53.8%.

And the viability, T/C (second compound 3.16 µM, first compound 3.16 µM)?
Its viability, T/C is 44.5%.

What about the viability, T/C (second compound 3.16 µM, first compound 10 µM) of the same molecule?
Its viability, T/C is 41%.

What about the viability, T/C [11] of the same molecule?
The viability, T/C was 64.1%.

What about the viability, T/C (second compound 10 µM, first compound 0.1 µM) of the same molecule?
Its viability, T/C is 73.5%.

What about the viability, T/C [12] of the same molecule?
The viability, T/C was 67.7%.

And the viability, T/C (second compound 10 µM, first compound 1 µM)?
The viability, T/C was 45.8%.

What about the viability, T/C (second compound 10 µM, first compound 3.16 µM) of the same molecule?
Its viability, T/C is 43.2%.

What about the viability, T/C (second compound 10 µM, first compound 10 µM) of the same molecule?
Its viability, T/C is 5.43%.
